# From US9427482B2, “Agents for clearing biomolecules from circulation” (KONINKLIJKE PHILIPS N.V., priority 2010, dated 2016)
# Tests used:
# LS174T xenografts = experiment: Biodistribution of ^125I-CC49-TCO 18 and ^177Lu-tetrazine 15 with one or two doses of 12 (Example 9); format: in vivo, mice
# Method: LS174T tumor model. The human colon cancer cell line LS174T was obtained from the ATCC and maintained in Eagle's minimal essential medium (Sigma) supplemented with 10% heat inactivated fetal calf serum (Gibco), penicillin (100 U/mL), streptomycin (100 μg/mL) and […] Glutamax. Nude female Balb/C mice (20-25 g body weight, Charles River Laboratories) were inoculated subcutaneously with 5×10^6 cells in 100 μL sterile PBS.
# Nude female mice (n=4) bearing LS174T xenografts (0.29±0.16 g) were injected ^125I-CC49-TCO 18 (t=0, 100 μg/100 μl per mouse) followed by one 160 μg/100 μl dose of galactose-MSA-tetrazine (12) 30 hours post mAb injection, or two 160 μg/100 μl 12 doses 30 and 48 hours post mAb injection. Two hours after the last clearing agent dose the mice were administered 8.52 μg of ^177Lu-labeled tetrazine 15 (10 equiv. with respect to mAb) and were sacrificed 3 hours post tetrazine injection. Blood was withdrawn by heart puncture and selected organs and tissues were harvested and blotted dry. The blood samples and tissues were weighed, added with 1 mL PBS and the radioactivity was counted in a gamma counter along with standards to determine the % ID/g. The differences between columns were analyzed using the two-tailed unpaired t-test (Graphpad Prism v. 5.01)
# tumor = experiment: Dual isotope biodistribution, mice pretargeted with CC49-TCO 20 (Example 10); format: in vivo; conditions: two doses of 12; 3 h after ^177Lu-tetrazine 15
# Method: Tumor-bearing mice (ca. 100 mm^3 tumor size; n=4) were injected with ^125I-CC49 functionalized with 7.5 TCO-20 groups (100 μg/mouse, ca. 0.2 MBq). Thirty and 48 hours post-mAb injection the mice received one dose of clearing agent (galactose-MSA-tetrazine, 160 μg/dose) followed 2 h later by ^177Lu-tetrazine 15 (10 eq. with respect to the mAb, ca. 0.5 MBq). Three hours post-tetrazine injection the mice were anesthetized and sacrificed by cervical dislocation, blood was withdrawn by heart puncture, organs and tissues of interest were harvested and blotted dry. All collected samples were weighed and added with 1 mL PBS. The sample radioactivity was measured in a gamma-counter with a dual-isotope protocol (10-80 keV window for ^125I and 155-380 keV window for ^177Lu) along with standards to determine the percent injected dose per gram tissue (% ID/g).
# [1] = Organ residence times from mouse biodistribution data (MIRD)
# Method: Radiation dosimetry estimates were calculated for a male human model (standard 73 Kg adult) and for a voxelized mouse model by using the mouse biodistribution data (Example 12, Tables 7 and 8) according to the MIRD methodology. Activity concentration in these organs were converted in percent injected dose (% ID) and decay corrected to the time of injection. The % ID for blood, muscle and bone were estimated from the % ID/g of tissue and assuming 6%, 42% and 11% of the body weight. Whenever possible the time activity curves were fitted by a two-phase exponential clearance function. The fitted function was then integrated analytically to yield the organ residence times (Table 9). […] The time activity curve of the tumor was fitted by a mono-exponential uptake function defined as F(t)=a0(1−exp(−a1t)).
# For ^177Lu-DOTA-CC49 some radioactivity was collected in the mixture of urine and feces. […] For the pretargeted ^177Lu-tetrazine a total of 97.8% ID was excreted.
# [2] = Two doses of 12, 30 and 48 h post mAb
structure (smiles),measurement,setting,value
O=C([O-])CN1CCN(CC(=O)[O-])CCN(CC(=O)NCCOCCOCCOCCOCCOCCOCCOCCOCCOCCOCCOCCNC(=O)CCCC(=O)Nc2ccc(-c3nnc(-c4ccccn4)nn3)nc2)CCN(CC(=O)[O-])CC1.[177Lu+3] [^177Lu-tetrazine],^177Lu-tetrazine T/blood,"LS174T xenografts; One dose of 12, 30 h post mAb",45.9±14.2
same,^177Lu-tetrazine T/bone,"LS174T xenografts; One dose of 12, 30 h post mAb",136.1 ± 68.7
same,^177Lu-tetrazine T/brain,"LS174T xenografts; One dose of 12, 30 h post mAb",935.9 ± 297.1
same,^177Lu-tetrazine T/heart,"LS174T xenografts; One dose of 12, 30 h post mAb",64.7 ± 18.0
same,^177Lu-tetrazine T/kidney,"LS174T xenografts; One dose of 12, 30 h post mAb",7.9 ± 3.3
same,^177Lu-tetrazine T/liver,"LS174T xenografts; One dose of 12, 30 h post mAb",32.4 ± 6.3
same,^177Lu-tetrazine T/lung,"LS174T xenografts; One dose of 12, 30 h post mAb",28.1 ± 11.8
same,^177Lu-tetrazine T/muscle,"LS174T xenografts; One dose of 12, 30 h post mAb",128.5 ± 83.7
same,^177Lu-tetrazine T/spleen,"LS174T xenografts; One dose of 12, 30 h post mAb",50.5 ± 10.9
same,^177Lu-tetrazine in blood,"LS174T xenografts; One dose of 12, 30 h post mAb",0.17 ± 0.06 % ID/g
same,^177Lu-tetrazine in bone,"LS174T xenografts; One dose of 12, 30 h post mAb",0.06 ± 0.03 % ID/g
same,^177Lu-tetrazine in brain,"LS174T xenografts; One dose of 12, 30 h post mAb",0.01 ± 0.00 % ID/g
same,^177Lu-tetrazine in heart,"LS174T xenografts; One dose of 12, 30 h post mAb",0.12 ± 0.03 % ID/g
same,^177Lu-tetrazine in kidney,"LS174T xenografts; One dose of 12, 30 h post mAb",1.06 ± 0.39 % ID/g
same,^177Lu-tetrazine in liver,"LS174T xenografts; One dose of 12, 30 h post mAb",0.23 ± 0.00 % ID/g
same,^177Lu-tetrazine in lung,"LS174T xenografts; One dose of 12, 30 h post mAb",0.28 ± 0.05 % ID/g
same,^177Lu-tetrazine in muscle,"LS174T xenografts; One dose of 12, 30 h post mAb",0.08 ± 0.04 % ID/g
same,^177Lu-tetrazine in spleen,"LS174T xenografts; One dose of 12, 30 h post mAb",0.15 ± 0.03 % ID/g
same,^177Lu-tetrazine in tumor,"LS174T xenografts; One dose of 12, 30 h post mAb",7.48 ± 1.46 % ID/g
same,^177Lu-tetrazine T/bone,LS174T xenografts; [2],123.3 ± 80.3
same,^177Lu-tetrazine T/brain,LS174T xenografts; [2],1146.7 ± 122.9
same,^177Lu-tetrazine T/heart,LS174T xenografts; [2],142.4 ± 18.5
same,^177Lu-tetrazine T/kidney,LS174T xenografts; [2],3.4 ± 0.4
same,^177Lu-tetrazine T/liver,LS174T xenografts; [2],30.8 ± 2.9
same,^177Lu-tetrazine T/lung,LS174T xenografts; [2],26.2 ± 3.9
same,^177Lu-tetrazine T/muscle,LS174T xenografts; [2],140.9 ± 67.1
same,^177Lu-tetrazine T/spleen,LS174T xenografts; [2],63.7 ± 9.2
same,^177Lu-tetrazine in blood,LS174T xenografts; [2],0.03 ± 0.00 % ID/g
same,^177Lu-tetrazine in bone,LS174T xenografts; [2],0.08 ± 0.08 % ID/g
same,^177Lu-tetrazine in brain,LS174T xenografts; [2],0.00 ± 0.00 % ID/g
same,^177Lu-tetrazine in heart,LS174T xenografts; [2],0.04 ± 0.00 % ID/g
same,^177Lu-tetrazine in kidney,LS174T xenografts; [2],1.58 ± 0.14 % ID/g
same,^177Lu-tetrazine in liver,LS174T xenografts; [2],0.18 ± 0.02 % ID/g
same,^177Lu-tetrazine in lung,LS174T xenografts; [2],0.21 ± 0.03 % ID/g
same,^177Lu-tetrazine in muscle,LS174T xenografts; [2],0.05 ± 0.03 % ID/g
same,^177Lu-tetrazine in spleen,LS174T xenografts; [2],0.09 ± 0.01 % ID/g
same,^177Lu-tetrazine in tumor,LS174T xenografts; [2],5.38 ± 0.48 % ID/g
same,^177Lu-tetrazine Blood,tumor,0.03 ± 0.00 % ID/gram
same,^177Lu-tetrazine Bone,tumor,0.08 ± 0.04 % ID/gram
same,^177Lu-tetrazine Brain,tumor,0.01 ± 0.00 % ID/gram
same,^177Lu-tetrazine Heart,tumor,0.05 ± 0.01 % ID/gram
same,^177Lu-tetrazine Kidney,tumor,1.50 ± 0.24 % ID/gram
same,^177Lu-tetrazine Liver,tumor,0.19 ± 0.02 % ID/gram
same,^177Lu-tetrazine Lung,tumor,0.24 ± 0.02 % ID/gram
same,^177Lu-tetrazine Muscle,tumor,0.03 ± 0.00 % ID/gram
same,^177Lu-tetrazine Spleen,tumor,0.09 ± 0.01 % ID/gram
same,^177Lu-tetrazine Tumor,tumor,9.25 ± 2.16 % ID/gram
same,^177Lu-tetrazine Tumor/organ Blood,tumor,304 ± 80
same,^177Lu-tetrazine Tumor/organ Bone,tumor,142 ± 59
same,^177Lu-tetrazine Tumor/organ Brain,tumor,1674 ± 243
same,^177Lu-tetrazine Tumor/organ Heart,tumor,187 ± 20
same,^177Lu-tetrazine Tumor/organ Kidney,tumor,6 ± 2
same,^177Lu-tetrazine Tumor/organ Liver,tumor,50 ± 10
same,^177Lu-tetrazine Tumor/organ Lung,tumor,39 ± 8
same,^177Lu-tetrazine Tumor/organ Muscle,tumor,328 ± 96
same,^177Lu-tetrazine Tumor/organ Spleen,tumor,108 ± 22
same,Residence time Bladder Wall,[1],0.009 h
same,Residence time Blood,[1],0.067 h
same,Residence time Bone,[1],0.239 h
same,Residence time Brain,[1],0.001 h
same,Residence time Heart Wall,[1],0.001 h
same,Residence time Kidneys,[1],0.293 h
same,Residence time Large Intestines,[1],0.23 h
same,Residence time Liver,[1],0.302 h
same,Residence time Lungs,[1],0.031 h
same,Residence time Muscle,[1],0.19 h
same,Residence time Ovaries,[1],0.0034 h
same,Residence time Small Intestines,[1],0.082 h
same,Residence time Spleen,[1],0.023 h
same,Residence time Stomach,[1],0.032 h
same,Residence time Tumor,[1],3.93 h
same,Residence time Uterus,[1],0.026 h
same,Residence time remainder of the body,[1],1 h
same,Residence time Red Marrow,[1]; τmarrow=0.08 τblood,0.0054 h
